Test results: patent publication US8247596B2 (Sumitomo Chemical Company, Limited, priority 2007, dated 2012)

What was measured:
Assay type in all cases: in vivo
Musca domestica = assay: Test Example 4: filter paper/sucrose bait test on Musca domestica; conditions: 24 h, read-out: pest death rate
Description: A formulation of any one of the present compounds (1), (4), (5), (7), (11), (12), (13), (18t), (18c), (19), (20), (21), (22), (24), (25t), (25c), (26t), (26c), (27), (29), (30), (31), (32), (33), (34), (35), (40), (41), (43), (49), (50) and (55) obtained according to Formulation Example 36 was diluted with water so that the active ingredient concentration was 500 ppm to obtain a test solution.
(§1) A filter paper having a diameter of 5.5 cm was spread on the bottom of a polyethylene cup having a diameter of 5.5 cm and 0.7 ml of the test solution was added dropwise onto the filter paper. As a bait 30 mg of sucrose was uniformly placed on the filter paper. Into the polyethylene cup, 10 female imagoes of Musca domestica were released and the cup was sealed with a lid. After 24 hours, the number of surviving Musca domestica was examined and the death rate of the pest was calculated.

Blattalla germanica = assay: Test Example 5: filter paper/sucrose bait test on Blattalla germanica; conditions: 144 h, read-out: pest death rate
Description: A formulation of any one of the present compounds (4), (5), (7), (12), (13), (18t), (18c), (22), (25t), (25c), (26t), (26c), (29), (30), (31), (32), (33), (34), (40), (41), (43), (49) and (55) obtained according to Formulation Example 36 was diluted with water so that the active ingredient concentration was 500 ppm to obtain a test solution.
as §1, with “2 male” for “10 female”, “Blattalla germanica” for “Musca domestica”, “6 days,” for “24 hours,”

Culex pipiens pallens = assay: Test Example 6: larvae of Culex pipiens pallens in treated water; conditions: 24 h, read-out: pest death rate
Description: A formulation of any one of the present compounds (7), (11), (12), (13), (17), (18t), (18c), (22), (24), (25t), (25c), (26t), (26c), (27), (29), (33), (34), (35), (36), (38), (40), (41), (43), (47), (49), (50) and (55) obtained according to Formulation Example 36 was diluted with water so that the active ingredient concentration was 500 ppm to obtain a test solution.
To 100 mL of ion-exchanged water, 0.7 ml of the test solution was added (active ingredient concentration: 3.5 ppm). Into the solution, 20 last-instar larvae of Culex pipiens pallens were released. One day after, the number of surviving Culex pipiens pallens was examined and the death rate of the pest was calculated.

[1] = system: Haemaphysalis longicornis; assay: Test Example 7: treated filter paper pouch test on ticks; conditions: Haemaphysalis longicornis, 48 h; filter paper treated with 100 mg/m^2; non-blood-sucking nymphal ticks, 10 ticks/group; two days after; read-out: pest death rate
Description: Five milligrams of any one of the present compounds (4), (7), (18t), (22), (25t), (26t), (29), (30), (31), (32), (33), (34), (35), (40), (41), (42), (43), (44) and (55) was dissolved in 10 mL of acetone. One milliliter of the acetone solution was uniformly applied on one side of a filter paper (TOYO No. 2; 5×10 cm), so that the filter paper having a surface area of 50 cm^2 was treated with 100 mg/m^2 of the present compound. After drying, the filter paper was folded in two and its edges were clipped to make a pouch. Test ticks (non-blood-sucking nymphal ticks, Haemaphysalis longicornis, 10 ticks/group) were put into the pouch, and the pouch was sealed with clips. Two days after, the number of surviving ticks was examined and the death rate was calculated.

SMILES	pest or weed control at 500 ppm (Musca domestica) [%]	pest or weed control at 500 ppm (Blattalla germanica) [%]	pest or weed control at 3.5 ppm (Culex pipiens pallens) [%]	pest or weed control at 100 mg/m2 [1] [%]
C#CC1CCC(C[S+]([O-])CCC(F)(F)F)CC1 (stereo not shown) [present compound (26t), 1-ethynyl-4-(3,3,3-trifluoropropylsulfinylmethyl)cyclohexane]	≥ 90	100	≥ 95	90
N#CC(C1CCC(F)(F)CC1)S(=O)(=O)CCC(F)(F)F (stereo not shown) [present compound (29), 2-(4,4-difluorocyclohexyl)-2-(3,3,3-trifluoropropylsulfonyl)acetonitrile]	≥ 90	100	≥ 95	90
CON=C1CCC(C(C#N)S(=O)(=O)CCC(F)(F)F)CC1 (stereo not shown) [present compound (33), 2-[4-(methoxyimino)cyclohexyl]-2-(3,3,3-trifluoropropylsulfonyl)acetonitrile]	≥ 90	100	≥ 95	90
N#CC(C1CCC(=NO)CC1)S(=O)(=O)CCC(F)(F)F (stereo not shown) [present compound (34), 2-[4-(hydroxyimino)cyclohexyl]-2-(3,3,3-trifluoropropylsulfonyl)acetonitrile]	≥ 90	100	≥ 95	90
CON=C1CCC(C(C)(C#N)S(=O)(=O)CCC(F)(F)F)CC1 (stereo not shown) [present compound (40), 2-[4-(methoxyimino)cyclohexyl]-2-(3,3,3-trifluoropropylsulfonyl)propionitrile]	≥ 90	100	≥ 95	90
CCC(C#N)(C1CCC(=NOC)CC1)S(=O)(=O)CCC(F)(F)F (stereo not shown) [present compound (41), 2-[4-(methoxyimino)cyclohexyl]-2-(3,3,3-trifluoropropylsulfonyl)butyronitrile]	≥ 90	100	≥ 95	90
CON=C1CCC(C(C#N)S(=O)(=O)CCC(F)(F)C(F)(F)F)CC1 (stereo not shown) [present compound (55), 2-[4-(methoxyimino)cyclohexyl]-2-(3,3,4,4,4-pentafluorobutylsulfonyl)acetonitrile]	≥ 90	100	≥ 95	90
